Measurements as given in patent publication US4649131A, “Growth hormone releasing factor analogs” (Hoffmann-La Roche Inc., priority 1985, dated 1987).
No end group written: not given here.

How the values were obtained:
rat pituitary cells = assay: stimulation of growth hormone production in rat pituitary cells in tissue culture (RIA for rat growth hormone); type: cell-based
Description: Biological activity of the synthetic GRF(1-44)NH2 was identical to the natural GRF(1-44)NH2 which was isolated from a human pancreatic tumor of an individual suffering from acrommegaly (Salk Institute standard hGRF-NH2 (NL-A-10)). The assay for biological activity, which is based on the ability to stimulate production of growth hormone in rat pituitary cells in tissue culture, was performed in the following manner.
Pituitaries from 30-40 male Sprague-Dawley rats (175 g) were removed aseptically after decapitation. The anterior lobes were collected, washed 3 times in sterile Hepes buffer (0.025M) (pH 7.35) and dispersed at 37° C. in 20-30 ml Hepes buffer (pH 7.35) containing collagenase (4 mg per ml) and Dispase (Protease grade II, 2 mg per ml). After gentle 100-110-min. vortexing and trituration by Pasteur pipette, the dispersed cells were separated by centrifugation (150×g, 4 min) and re-suspended in Hepes buffer containing neuraminidase ([…]), and 200 µg/ml ethylenediaminetetraacetic acid (EDTA) disodium salt pH 7.35, for 10 min. The cells were washed twice with plating medium and plated on multiwell-plates (1.5×10^5 cells per ml) using the following defined medium: F-12/DMEM/BGJ (6:3:1) (Gibco: 430-1700/430-1600/320-2591) with 2 g BSA/1., 2.38 g Hepes/1.50 mg PSN antibiotic mixture (Gibco Laboratories), 10 mg/l transferrin (Sigma T2252) with 1.83 gm NazHCO3/l (Baker 3506). The medium in each well was supplemented either with a sample of the novel GRF peptide or natural GRF(1-44)-NH2 at concentrations ranging from 0.8 to 200 fmol. per ml. of medium. Control wells contained no supplement. Plating was done with this medium added with 2% fetal calf serum to ensure rapid fixation of the cells. On the fourth day the cells were washed twice with the defined medium without fetal calf serum. Finally 900 μl of defined medium was added to each well plus 100 μl of the same medium containing each individual treatment, in triplicate. After 4 hours of incubation the medium was collected and diluted as required to conduct radioimmunoassay (RIAs) for rat growth hormone. […]

[1] = tested on: release of growth hormone; conditions: Rivier and Vale et al., Nature 300, 276-278 (1982); cited from earlier work

With CC[C@H](C)[C@H](NC(=O)[C@H](C)NC(=O)[C@H](CC(=O)O)NC(=O)[C@H](C)NC(=O)[C@@H](N)Cc1ccc(O)cc1)C(=O)N[C@@H](Cc1ccccc1)C(=O)N[C@H](C(=O)N[C@@H](CC(N)=O)C(=O)N[C@@H](CO)C(=O)N[C@@H](Cc1ccc(O)cc1)C(=O)N[C@@H](CCCNC(=N)N)C(=O)N[C@@H](CCCCN)C(=O)N[C@H](C(=O)N[C@@H](CC(C)C)C(=O)NCC(=O)N[C@@H](CCC(N)=O)C(=O)N[C@@H](CC(C)C)C(=O)N[C@@H](CO)C(=O)N[C@@H](C)C(=O)N[C@@H](CCCNC(=N)N)C(=O)N[C@@H](CCCCN)C(=O)N[C@@H](CC(C)C)C(=O)N[C@@H](CC(C)C)C(=O)N[C@@H](CCC(N)=O)C(=O)N[C@@H](CC(=O)O)C(=O)N[C@H](C(=O)N[C@@H](CCSC)C(=O)N[C@@H](CO)C(=O)N[C@@H](CCCNC(=N)N)C(=O)N[C@@H](CCC(N)=O)C(=O)N[C@@H](CCC(N)=O)C(=O)NCC(=O)N[C@@H](CCC(=O)O)C(=O)N[C@@H](CO)C(=O)N[C@@H](CC(N)=O)C(=O)N[C@@H](CCC(N)=O)C(=O)N[C@@H](CCC(=O)O)C(=O)N[C@@H](CCCNC(=N)N)C(=O)NCC(=O)N[C@@H](C)C(=O)N[C@@H](CCCNC(=N)N)C(=O)N[C@@H](C)C(=O)N[C@@H](CCCNC(=N)N)C(=O)N[C@@H](CC(C)C)C(N)=O)[C@@H](C)CC)C(C)C)[C@@H](C)O [synthetic GRF(1-44)NH2, GRF(1-44)-NH2] the “biological activity compared with natural GRF(1-44)NH2” value (rat pituitary cells; versus natural GRF(1-44)NH2 isolated from a human pancreatic tumor (Salk Institute standard NL-A-10)) was “identical”.

In the case of GRF(1-29)-NH2, the “intrinsic activity and potency in vitro” value [1] is listed as “full intrinsic activity and potency”.

In the case of “YADAIFTNSYRKVLAQLSARKLLQDIMSR-NH2 [(Ala^15)GRF(1-29)NH2, [Ala^15]-hGRF(1-29)-NH2]”, the “potency compared to GRF(1-44)NH2” value (rat pituitary cells; relative to GRF(1-44)NH2, on a weight for weight basis, 4 hours of incubation) was 4.1 times and the “potency compared to GRF(1-29)NH2” value (rat pituitary cells; relative to unsubstituted shortened GRF(1-29)NH2, 4 hours of incubation) was 5.1 times.
